Like-named read-outs stand apart in the source and are kept apart here.
Test system: SARS-CoV-2 strain USA-WA1/2020
Assay: microbe, parasite or virus in culture
Assay type: cell-based
Settings: Severe acute respiratory syndrome coronavirus 2, HeLa-ACE2, 24 h, HeLa-ACE2 cells, SARS-CoV-2 infection, 24 h, read-out: EC50, uM (Hela)

SMILES	EC50 [µM]	EC50 (given as bound) [µM]
CC(C)(C)C[C@H](NC(=O)c1cnc(C(F)(F)F)s1)C(=O)N[C@@H](C[C@@H]1CCNC1=O)C(=O)COC(F)(F)F [Compound 538, N-((S)-4,4-dimethyl-1-oxo-1-(((S)-3-oxo-1-((S)-2-oxopyrrolidin-3-yl)-4-(trifluoromethoxy)butan-2-yl)amino)pentan-2-yl)-2-(trifluoromethyl)-thiazole-5-carboxamide]	< 0.05	–
O=C(Nc1ccccc1F)C(=O)N1[C@H](C(=O)N[C@@H](C[C@@H]2CCNC2=O)C(=O)COC(F)(F)F)C[C@@H]2C[C@@H]21 [Compound 539, (1S,3S,5S)-2-(2-((2-fluorophenyl)amino)-2-oxoacetyl)-N-((S)-3-oxo-1-((S)-2-oxopyrrolidin-3-yl)-4-(trifluoromethoxy)butan-2-yl)-2-azabicyclo-[3.1.0]hexane-3-carboxamide]	0.05 to 0.2	–
CC1(C)C[C@@H](C(=O)N[C@@H](C[C@@H]2CCNC2=O)C(=O)COC(F)(F)F)N(C(=O)C(=O)NC2(C)CC2)C1 [Compound 540, (S)-4,4-dimethyl-1-(2-((1-methylcyclo-propyl)amino)-2-oxoacetyl)-N-((S)-3-oxo-1-((S)-2-oxopyrrolidin-3-yl)-4-(trifluoromethoxy)butan-2-yl)pyrrolidine-2-carboxamide]	–	> 1
CC1(NC(=O)C(=O)N2[C@H](C(=O)N[C@@H](C[C@@H]3CCNC3=O)C(=O)COC(F)(F)F)CCC23CC3)CC1 [Compound 541, (S)-4-(2-((l-methyl-cyclopropyl)amino)-2-oxoacetyl)-N-((S)-3-oxo-1-((S)-2-oxopyrrolidin-3-yl)-4-(trifluoromethoxy)butan-2-yl)-4-azaspiro-[2.4]heptane-5-carboxamide]	–	> 1
O=C(NCC(F)(F)F)C(=O)N1[C@@H]2CC[C@@H](C2)[C@H]1C(=O)N[C@@H](C[C@@H]1CCNC1=O)C(=O)COC(F)(F)F [Compound 542, (1R,3S,4S)-N-((S)-3-oxo-1-((S)-2-oxopyrrolidin-3-yl)-4-(trifluoromethoxy)butan-2-yl)-2-(2-oxo-2-((2,2,2-trifluoroethyl)-amino)acetyl)-2-azabicyclo[2.2.1]-heptane-3-carboxamide]	0.05 to 0.2	–
CC1(C)C[C@@H](C(=O)N[C@@H](C[C@@H]2CCNC2=O)C(=O)COC(F)(F)F)N(C(=O)C(=O)NC2CC(F)(F)C2)C1 [Compound 543, (S)-1-(2-((3,3-difluorocyclo-butyl)amino)-2-oxoacetyl)-4,4-dimethyl-N-((S)-3-oxo-1-((S)-2-oxopyrrolidin-3-yl)-4-(trifluoromethoxy)butan-2-yl)pyrrolidine-2-carboxamide]	0.5 to 1	–
O=C1NCC[C@H]1C[C@H](NC(=O)[C@@H]1[C@H]2CCC[C@H]2CN1C(=O)C(=O)N1CCOCC1)C(=O)COC(F)(F)F [Compound 544, (1S,3aR,6aS)-2-(2-morpholino-2-oxoacetyl)-N-((S)-3-oxo-1-((S)-2-oxopyrrolidin-3-yl)-4-(trifluoromethoxy)butan-2-yl)octahydrocyclo-penta[c]pyrrole-1-carboxamide]	0.5 to 1	–
Cc1cc(C(=O)N2C[C@@H]3CCC[C@@H]3[C@H]2C(=O)N[C@@H](C[C@@H]2CCNC2=O)C(=O)COC(F)(F)F)no1 [Compound 545, (1S,3aR,6aS)-2-(5-methylisoxazole-3-carbonyl)-N-((S)-3-oxo-1-((S)-2-oxopyrrolidin-3-yl)-4-(trifluoromethoxy)butan-2-yl)octahydrocyclopenta[c]pyrrole-1-carboxamide]	0.05 to 0.2	–
CC1(NC(=O)C(=O)N2[C@H]3CC[C@H](C3)[C@H]2C(=O)N[C@@H](C[C@@H]2CCNC2=O)C(=O)COC(F)(F)F)CC1 [Compound 546, (1S,3S,4R)-2-(2-((l-methylcyclopropyl)-amino)-2-oxoacetyl)-N-((S)-3-oxo-1-((S)-2-oxopyrrolidin-3-yl)-4-(trifluoromethoxy)butan-2-yl)-2-azabicyclo-[2.2.1]heptane-3-carboxamide]	0.2 to 0.5	–
C[C@@H]1C[C@H]2[C@H](C[C@H](C(=O)N[C@@H](C[C@@H]3CCNC3=O)C(=O)COC(F)(F)F)N2C(=O)C(=O)NC(C)(C)C)O1 [Compound 547, (2R,3aS,5R,6aS)-4-(2-(tert-butylamino)-2-oxoacetyl)-2-methyl-N-((S)-3-oxo-1-((S)-2-oxopyrrolidin-3-yl)-4-(trifluoromethoxy)butan-2-yl)hexahydro-2H-furo[3,2-b]pyrrole-5-carboxamide]	–	> 1
O=C(N[C@H]1[C@@H]2COC[C@@H]21)C(=O)N1C[C@@H]2CCC[C@@H]2[C@H]1C(=O)N[C@@H](C[C@@H]1CCNC1=O)C(=O)COC(F)(F)F [Compound 548, (1S,3aR,6aS)-2-(2-(((1R,5S,6r)-3-oxabicyclo[3.1.0]-hexan-6-yl)amino)-2-oxoacetyl)-N-((S)-3-oxo-1-((S)-2-oxopyrrolidin-3-yl)-4-(trifluoromethoxy)butan-2-yl)octahydrocyclo-penta[c]pyrrole-1-carboxamide]	0.2 to 0.5	–
O=C1NCC[C@H]1C[C@H](NC(=O)[C@@H]1[C@H]2CCC[C@H]2CN1C(=O)c1noc2c1COCC2)C(=O)COC(F)(F)F [Compound 549, (1S,3aR,6aS)-2-(6,7-dihydro-4H-pyrano[3,4-d]isoxazole-3-carbonyl)-N-((S)-3-oxo-1-((S)-2-oxopyrrolidin-3-yl)-4-(trifluoromethoxy)butan-2-yl)octahydrocyclo-penta[c]pyrrole-1-carboxamide]	0.05 to 0.2	–
Cc1cccnc1NC(=O)C(=O)N1C[C@@H]2CCC[C@@H]2[C@H]1C(=O)N[C@@H](C[C@@H]1CCNC1=O)C(=O)COC(F)(F)F [Compound 550, (1S,3aR,6aS)-2-(2-((3-methylpyridin-2-yl)amino)-2-oxoacetyl)-N-((S)-3-oxo-1-((S)-2-oxopyrrolidin-3-yl)-4-(trifluoromethoxy)butan-2-yl)octahydrocyclo-penta[c]pyrrole-1-carboxamide]	–	> 1
C[C@@H]1C[C@H]2[C@H](C[C@@H](C(=O)N[C@@H](C[C@@H]3CCNC3=O)C(=O)COC(F)(F)F)N2C(=O)C(=O)NC(C)(C)C)O1 [Compound 551, (2R,3aS,5S,6aS)-4-(2-(tert-butylamino)-2-oxoacetyl)-2-methyl-N-((S)-3-oxo-1-((S)-2-oxopyrrolidin-3-yl)-4-(trifluoromethoxy)butan-2-yl)hexahydro-2H-furo[3,2-b]pyrrole-5-carboxamide]	–	> 1
Cc1ccccc1NC(=O)c1cn([C@@H](CC(C)C)C(=O)N[C@@H](C[C@@H]2CCNC2=O)C(=O)COC(F)(F)F)nn1 [Compound 552, 1-((S)-4-methyl-1-oxo-1-(((S)-3-oxo-1-((S)-2-oxopyrrolidin-3-yl)-4-(trifluoromethoxy)butan-2-yl)amino)pentan-2-yl)-N-(o-tolyl)-1H-l,2,3-triazole-4-carboxamide]	< 0.05	–
CC(C)(C)NC(=O)C(=O)N1C[C@H]2[C@@H]([C@H]1C(=O)N[C@@H](C[C@@H]1CCNC1=O)C(=O)COC(F)(F)F)C21CC1 [Compound 553, (1R,2S,5S)-3-(2-(tert-butylamino)-2-oxoacetyl)-N-((S)-3-oxo-1-((S)-2-oxopyrrolidin-3-yl)-4-(trifluoromethoxy)butan-2-yl)-3-azaspiro-[bicyclo[3.1.0]hexane-6,1'-cyclopropane]-2-carboxamide]	0.05 to 0.2	–

— patent US11708348B2, “Protease inhibitors for treatment of coronavirus infections” (The Scripps Research Institute, priority 2021, dated 2023)
